{"source": "ChEMBL document CHEMBL1933058", "about": "“5-(2-amino-pyrimidin-4-yl)-1H-pyrrole and 2-(2-amino-pyrimidin-4-yl)-1,5,6,7-tetrahydro-pyrrolo[3,2-c]pyridin-4-one derivatives as new classes of selective and orally available Polo-like kinase 1 inhibitors” (Bioorg Med Chem Lett, 2012)", "key": {"[1]": {"target": "Serine/threonine-protein kinase PLK1 (Homo sapiens, UniProt P53350)", "sequence (P53350 whole entry)": "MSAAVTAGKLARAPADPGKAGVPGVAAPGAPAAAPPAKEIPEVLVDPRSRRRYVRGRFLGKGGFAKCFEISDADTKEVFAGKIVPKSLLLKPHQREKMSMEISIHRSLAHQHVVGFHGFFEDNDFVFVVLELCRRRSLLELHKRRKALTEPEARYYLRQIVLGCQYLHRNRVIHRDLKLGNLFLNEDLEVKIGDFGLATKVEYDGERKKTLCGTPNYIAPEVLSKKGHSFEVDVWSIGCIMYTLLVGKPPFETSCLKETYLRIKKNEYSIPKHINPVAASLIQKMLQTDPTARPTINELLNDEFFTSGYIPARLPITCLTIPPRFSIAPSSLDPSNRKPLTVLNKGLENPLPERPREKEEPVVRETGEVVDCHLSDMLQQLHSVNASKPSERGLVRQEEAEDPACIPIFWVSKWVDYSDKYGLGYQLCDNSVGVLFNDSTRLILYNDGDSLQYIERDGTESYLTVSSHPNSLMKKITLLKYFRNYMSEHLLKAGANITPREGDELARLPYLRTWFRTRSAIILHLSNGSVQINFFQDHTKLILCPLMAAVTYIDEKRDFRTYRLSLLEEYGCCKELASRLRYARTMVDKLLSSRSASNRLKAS", "experiment": "Inhibition of PLK1"}, "[2]": {"target": "Serine/threonine-protein kinase PLK2 (Homo sapiens, UniProt Q9NYY3)", "sequence (Q9NYY3 whole entry)": "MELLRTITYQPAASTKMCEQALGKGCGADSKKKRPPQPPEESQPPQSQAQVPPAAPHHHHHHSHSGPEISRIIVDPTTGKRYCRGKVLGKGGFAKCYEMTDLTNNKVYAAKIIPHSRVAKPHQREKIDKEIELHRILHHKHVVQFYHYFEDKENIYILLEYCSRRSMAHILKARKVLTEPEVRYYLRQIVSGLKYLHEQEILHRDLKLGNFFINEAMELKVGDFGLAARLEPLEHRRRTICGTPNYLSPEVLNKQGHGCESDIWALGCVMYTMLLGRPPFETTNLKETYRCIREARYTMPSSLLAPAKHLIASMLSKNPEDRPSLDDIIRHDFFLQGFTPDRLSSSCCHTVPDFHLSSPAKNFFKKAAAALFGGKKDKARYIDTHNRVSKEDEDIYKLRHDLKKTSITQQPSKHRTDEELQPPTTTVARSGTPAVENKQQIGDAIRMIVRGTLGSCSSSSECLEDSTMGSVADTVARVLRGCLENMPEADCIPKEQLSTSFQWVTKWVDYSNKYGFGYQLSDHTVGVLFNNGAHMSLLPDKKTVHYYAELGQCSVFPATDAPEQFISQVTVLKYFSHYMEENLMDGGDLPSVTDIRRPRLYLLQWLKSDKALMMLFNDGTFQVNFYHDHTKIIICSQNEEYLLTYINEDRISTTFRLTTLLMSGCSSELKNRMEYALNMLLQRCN", "experiment": "Inhibition of PLK2"}, "[3]": {"target": "Serine/threonine-protein kinase PLK3 (Homo sapiens, UniProt Q9H4B4)", "sequence (Q9H4B4 whole entry)": "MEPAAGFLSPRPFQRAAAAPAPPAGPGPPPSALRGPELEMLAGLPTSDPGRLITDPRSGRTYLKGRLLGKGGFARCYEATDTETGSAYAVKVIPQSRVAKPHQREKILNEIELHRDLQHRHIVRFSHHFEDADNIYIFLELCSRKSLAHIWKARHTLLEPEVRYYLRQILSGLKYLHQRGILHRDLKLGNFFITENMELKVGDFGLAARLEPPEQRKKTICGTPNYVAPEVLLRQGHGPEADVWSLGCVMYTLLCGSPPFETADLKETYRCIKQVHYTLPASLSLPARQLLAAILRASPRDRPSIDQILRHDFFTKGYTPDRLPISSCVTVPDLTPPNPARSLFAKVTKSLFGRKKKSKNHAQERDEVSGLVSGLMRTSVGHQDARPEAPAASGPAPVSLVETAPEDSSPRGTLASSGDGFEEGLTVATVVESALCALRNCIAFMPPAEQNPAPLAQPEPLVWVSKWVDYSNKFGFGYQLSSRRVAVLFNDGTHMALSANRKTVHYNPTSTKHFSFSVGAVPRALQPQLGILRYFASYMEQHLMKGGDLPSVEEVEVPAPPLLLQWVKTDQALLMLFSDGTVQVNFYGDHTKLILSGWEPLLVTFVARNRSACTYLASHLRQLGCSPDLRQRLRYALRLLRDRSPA", "experiment": "Inhibition of PLK3"}, "[4]": {"target": "Cyclin-dependent kinase 2/cyclin A (Homo sapiens, UniProt P24941)", "experiment": "Inhibition of CDK2/cyclin A", "type": "protein-complex assay"}, "Aurora kinase A": {"target": "T1, Aurora kinase A (Homo sapiens, UniProt O14965)", "T1 sequence (O14965 whole entry)": "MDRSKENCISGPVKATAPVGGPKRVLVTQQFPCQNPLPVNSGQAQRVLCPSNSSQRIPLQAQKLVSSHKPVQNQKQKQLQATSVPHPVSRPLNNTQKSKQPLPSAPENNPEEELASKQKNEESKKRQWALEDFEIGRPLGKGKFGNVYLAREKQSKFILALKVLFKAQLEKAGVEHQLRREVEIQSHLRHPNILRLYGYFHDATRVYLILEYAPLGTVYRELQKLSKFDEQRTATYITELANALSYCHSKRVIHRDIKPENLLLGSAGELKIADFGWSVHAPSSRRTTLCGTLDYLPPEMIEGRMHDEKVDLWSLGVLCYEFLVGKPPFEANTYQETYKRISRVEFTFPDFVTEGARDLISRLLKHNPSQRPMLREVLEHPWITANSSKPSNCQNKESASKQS", "experiment": "Inhibition of Aurora-A"}, "A2780": {"system": "A2780", "experiment": "Antiproliferative activity against human A2780 cells", "type": "functional, cell-based"}}}
{"smiles": "CN1CCN(c2ccc(OC(F)(F)F)c(Nc3nccc(-c4cc5c(n4CC(F)(F)F)CCNC5=O)n3)c2)CC1", "values": [{"measurement": "IC50", "setting": "[1]", "result": 28, "unit": "nM"}, {"measurement": "IC50", "setting": "[2]", "result": "> 10000", "unit": "nM"}, {"measurement": "IC50", "setting": "[3]", "result": "> 10000", "unit": "nM"}, {"measurement": "IC50", "setting": "[4]", "result": "> 10000", "unit": "nM"}, {"measurement": "IC50", "setting": "Aurora kinase A", "result": "> 10000", "unit": "nM"}, {"measurement": "IC50", "setting": "A2780", "result": 62, "unit": "nM"}]}
{"smiles": "CN1CCN(c2ccc(OC(F)(F)F)c(Nc3nccc(-c4cc(C(N)=O)cn4CCOC4CCCCO4)n3)c2)CC1", "note": "(stereo unspecified)", "values": [{"measurement": "IC50", "setting": "[1]", "result": 272, "unit": "nM"}, {"measurement": "IC50", "setting": "[2]", "result": "> 10000", "unit": "nM"}, {"measurement": "IC50", "setting": "[3]", "result": "> 10000", "unit": "nM"}, {"measurement": "IC50", "setting": "[4]", "result": "> 10000", "unit": "nM"}, {"measurement": "IC50", "setting": "Aurora kinase A", "result": "> 10000", "unit": "nM"}, {"measurement": "IC50", "setting": "A2780", "result": 6690, "unit": "nM"}]}
{"smiles": "Nc1nccc(-c2cc3c([nH]2)CCNC3=O)n1", "values": [{"measurement": "IC50", "setting": "[1]", "result": 1130, "unit": "nM"}, {"measurement": "IC50", "setting": "[4]", "result": 219, "unit": "nM"}, {"measurement": "IC50", "setting": "Aurora kinase A", "result": "> 10000", "unit": "nM"}, {"measurement": "IC50", "setting": "A2780", "result": 1530, "unit": "nM"}]}
